Test results from the Kinase Knowledgebase extract (Sharma et al. 2016).

Molecular target: PIK3CA (human) (UniProt P42336)
Test: Assessment of PI3KCA Kinase Activity

PIK3CA (human), sequence (P42336 whole entry, looked up): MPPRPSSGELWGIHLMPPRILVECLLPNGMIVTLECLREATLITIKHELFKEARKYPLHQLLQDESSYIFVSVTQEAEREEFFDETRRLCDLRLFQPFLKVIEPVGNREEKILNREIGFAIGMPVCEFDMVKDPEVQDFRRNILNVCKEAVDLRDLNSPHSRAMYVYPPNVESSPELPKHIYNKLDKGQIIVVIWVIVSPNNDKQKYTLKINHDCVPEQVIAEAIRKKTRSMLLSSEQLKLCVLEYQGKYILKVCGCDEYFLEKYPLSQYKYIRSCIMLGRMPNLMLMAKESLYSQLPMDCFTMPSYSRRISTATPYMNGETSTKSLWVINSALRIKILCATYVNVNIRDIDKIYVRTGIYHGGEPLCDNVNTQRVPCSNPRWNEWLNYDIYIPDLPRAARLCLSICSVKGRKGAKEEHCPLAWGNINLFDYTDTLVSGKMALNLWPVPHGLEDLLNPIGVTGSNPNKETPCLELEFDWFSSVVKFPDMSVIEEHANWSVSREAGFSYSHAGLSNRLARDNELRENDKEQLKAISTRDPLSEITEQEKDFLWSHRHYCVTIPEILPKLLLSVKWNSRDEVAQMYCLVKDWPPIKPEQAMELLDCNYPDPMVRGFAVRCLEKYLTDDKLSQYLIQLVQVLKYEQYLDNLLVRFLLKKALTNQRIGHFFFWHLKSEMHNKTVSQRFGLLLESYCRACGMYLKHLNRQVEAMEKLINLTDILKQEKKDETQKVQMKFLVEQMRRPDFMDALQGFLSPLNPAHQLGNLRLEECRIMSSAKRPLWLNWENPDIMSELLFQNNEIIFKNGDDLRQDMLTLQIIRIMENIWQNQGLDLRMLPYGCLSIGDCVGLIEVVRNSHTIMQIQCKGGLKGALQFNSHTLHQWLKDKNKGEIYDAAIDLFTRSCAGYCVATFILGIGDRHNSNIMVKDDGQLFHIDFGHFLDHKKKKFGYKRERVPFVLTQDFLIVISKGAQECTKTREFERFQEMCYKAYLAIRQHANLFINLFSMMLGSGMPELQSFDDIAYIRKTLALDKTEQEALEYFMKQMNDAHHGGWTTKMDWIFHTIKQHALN

| SMILES | IC50 [µM] |
| --- | --- |
| Cc1nn2ccsc2c1-c1nc(-c2nc[nH]n2)c(-c2ccccc2)s1 | 0.1 to 1 |
| Clc1ccc(-c2cc(-c3ccnc4ccccc34)sc2-c2ncc[nH]2)c(Cl)c1 | 0.1 to 1 |
| CC(=O)Nc1cc(-c2nc(-c3ccc(Oc4ccccc4)cc3)c(-c3ncc[nH]3)s2)ccn1 | 0.1 to 1 |
| Cc1nn2ccccc2c1-c1nc(C(C)(C)C)c(-c2nnc[nH]2)s1 | < 0.1 |
| Cc1nn2ccsc2c1-c1nc(-c2ccccc2)c(-c2nnc[nH]2)s1 | < 0.1 |
| COc1cccc(F)c1-c1nc(-c2c(C)nn3ccc(OCCN4CCN(C)CC4)cc23)sc1-c1nc[nH]n1 | < 0.1 |
| CC(=O)Nc1cc(-c2nc(-c3c(C)cccc3C)c(-c3nnc[nH]3)s2)ccn1 | 0.1 to 1 |
| CC(=O)Nc1cc(-c2sc(-c3nccn3Cc3ccccn3)c(-c3ccc(Cl)cc3Cl)c2C#N)ccn1 | 0.1 to 1 |
| CC(=O)N1CCN(Cc2ccc3nc(C)c(-c4nc(-c5ccccc5)c(-c5nc[nH]n5)s4)n3c2)CC1 | < 0.1 |
| N#Cc1c(-c2ccncc2)sc(C(N)=O)c1-c1ccc(Cl)cc1Cl | 0.1 to 1 |
| Cc1nn2ccccc2c1-c1nc(-c2cccc(F)c2)c(-c2nnc[nH]2)s1 | < 0.1 |
| COC(=O)c1cnc(-c2sc(-c3ccnc(NC(C)=O)c3)c(C#N)c2-c2ccc(Cl)cc2Cl)[nH]1 | 0.1 to 1 |
| CCC(=O)Nc1cc(-c2nc(-c3ccc(Cl)cc3Cl)c(-c3ncc[nH]3)s2)ccn1 | < 0.1 |
| COc1ccccc1-c1nc(-c2c(C)nn3ccccc23)sc1-c1nnc[nH]1 | < 0.1 |
| Cc1nn2ccccc2c1-c1nc(-c2ccoc2)c(-c2nnc[nH]2)s1 | < 0.1 |
| Cc1nn2ccc(OC3CCN(C(=O)CO)CC3)cc2c1-c1nc(-c2ccccc2)c(-c2nnc[nH]2)s1 | < 0.1 |
| Cc1nc2ccc(-c3cnn(C)c3)cn2c1-c1nc(-c2ccccc2)c(-c2nc[nH]n2)s1 | < 0.1 |
| Cc1nn2ccccc2c1-c1nc(Cc2ccccc2)c(-c2nnc[nH]2)s1 | 0.1 to 1 |
| Cc1nn2ccccc2c1-c1nc(-c2cccc(C(F)(F)F)c2)c(-c2nc[nH]n2)s1 | 0.1 to 1 |
| Cc1nn2ccccc2c1-c1nc(-c2c(F)cccc2F)c(-c2nc[nH]n2)s1 | < 0.1 |

| SMILES | IC50 [µM] |
| --- | --- |
| CNC(=O)Nc1cc(-c2sc(-c3nnc[nH]3)c(-c3ccc(Cl)cc3Cl)c2C#N)ccn1 | < 0.1 |
| C/C=C/c1nc(-c2c(C)nn3ccccc23)sc1-c1nnc[nH]1 | < 0.1 |
| Cc1nn2ccsc2c1-c1nc(OCc2ccccc2)c(-c2nnc[nH]2)s1 | < 0.1 |
| Cc1cc(-c2cc(-c3ccc(Cl)cc3Cl)c(-c3ncc[nH]3)s2)ccn1 | < 0.1 |
| CC(=O)Nc1cc(-c2nc(-c3ccccc3)c(-c3nnc[nH]3)s2)ccn1 | < 0.1 |
| CC(=O)Nc1cc(-c2nc(-c3ccc(N)nc3)c(-c3ncc[nH]3)s2)ccn1 | 0.1 to 1 |
| O=C1CCc2c(-c3cc(-c4ccc(Cl)cc4Cl)c(-c4ncc[nH]4)s3)ccnc2N1 | < 0.1 |
| CC(=O)Nc1cc(-c2nc(-c3ccc(Cl)cc3Cl)c(-c3ncc[nH]3)s2)ccn1 | < 0.1 |
| CCC(=O)Nc1cc(-c2sc(-c3nnc[nH]3)c(-c3ccc(Cl)cc3Cl)c2C#N)ccn1 | < 0.1 |
| COc1ccc(-c2nc(-c3ccnc(NC(C)=O)c3)sc2-c2ncc[nH]2)cc1 | 0.1 to 1 |
| Nc1cc(-c2cc(-c3ccc(Cl)cc3Cl)c(-c3ncc[nH]3)s2)ccn1 | < 0.1 |
| CC(=O)Nc1cc(-c2nc(-c3ccccc3)c(-c3nnc[nH]3)s2)cc(C)n1 | 0.1 to 1 |
| Cc1nn2ccc(OCCN3CCC(O)CC3)cc2c1-c1nc(-c2ccccc2)c(-c2nc[nH]n2)s1 | < 0.1 |
| CC(=O)Nc1cc(-c2nc(-c3ccc(C(C)(C)C#N)cc3)c(-c3ncc[nH]3)s2)ccn1 | 0.1 to 1 |
| Cc1nn2ccc(OCCN3CCCCC3)cc2c1-c1nc(-c2ccccc2F)c(-c2nc[nH]n2)s1 | < 0.1 |
| CC(=O)Nc1cc(-c2nc(-c3ccc(N(C)C)cc3)c(-c3ncc[nH]3)s2)ccn1 | 0.1 to 1 |
| Cc1nc2ccc(CN3CCNCC3)cn2c1-c1nc(-c2ccccc2)c(-c2nnc[nH]2)s1 | < 0.1 |
| Cc1nn2ccc(OCCCN3CCOCC3)cc2c1-c1nc(-c2ccccc2)c(-c2nc[nH]n2)s1 | < 0.1 |
| CCOc1nc(-c2ccnc(NC(=O)c3ccco3)c2)sc1-c1nnc[nH]1 | 0.1 to 1 |
| Cc1nn2ccc(OCCN3CCC(F)(F)CC3)cc2c1-c1nc(-c2ccccc2)c(-c2nc[nH]n2)s1 | < 0.1 |

Second part, the compound after the results:

| IC50 [µM] | SMILES |
| --- | --- |
| 0.1 to 1 | Nc1cc(-c2nc(-c3ccccc3)c(-c3nnc[nH]3)s2)ccn1 |
| < 0.1 | N#Cc1c(-c2ccnc(NC(=O)CCl)c2)sc(-c2nnc[nH]2)c1-c1ccc(Cl)cc1Cl |
| < 0.1 | CC(=O)Nc1cc(-c2sc(-c3nccn3Cc3ccccc3)c(-c3ccc(Cl)cc3Cl)c2C#N)ccn1 |
| 0.1 to 1 | CC(=O)Nc1cc(-c2nc(-c3ccc(N(C)C)nc3)c(-c3ncc[nH]3)s2)ccn1 |
| < 0.1 | Cc1nnc(-c2sc(-c3c(C)nn4ccsc34)nc2-c2ccccc2)[nH]1 |
| < 0.1 | Clc1ccc(-c2cc(-c3ccnc4sccc34)sc2-c2ncc[nH]2)c(Cl)c1 |
| < 0.1 | Cc1nn2ccsc2c1-c1nc(-c2ccccc2)c(-c2ncc[nH]2)s1 |
| < 0.1 | N#Cc1c(-c2ccnc(NC(=O)C3CC3)c2)sc(-c2ncc[nH]2)c1-c1ccc(Cl)cc1Cl |
| < 0.1 | Cc1nn2ccccc2c1-c1cc(-c2ccc(Cl)cc2Cl)c(-c2ncc[nH]2)s1 |
| < 0.1 | CNc1cc(-c2sc(-c3nnc[nH]3)c(-c3ccc(Cl)cc3Cl)c2C#N)ccn1 |
| 0.1 to 1 | CC(=O)Nc1cc(-c2nc(-c3ccc(Cl)cc3Cl)c(-c3ncc[nH]3)s2)c(C)cn1 |
| 0.1 to 1 | CNc1ncc(Cl)c(-c2sc(-c3nnc[nH]3)c(-c3ccc(Cl)cc3Cl)c2C#N)n1 |
| < 0.1 | Cc1nc2ccc(CCCN)cn2c1-c1nc(-c2ccccc2)c(-c2nnc[nH]2)s1 |
| 0.1 to 1 | CC(=O)Nc1cc(-c2nc(Br)c(-c3ncc[nH]3)s2)ccn1 |
| 0.1 to 1 | CC(=O)Nc1cc(-c2nc(-c3cc(C(=O)N4CCCC4)ccc3F)c(-c3ncc[nH]3)s2)ccn1 |
| < 0.1 | CC(=O)Nc1cc(-c2nc(-c3ccc(Cl)cc3Cl)c(-c3ncc[nH]3)s2)ncn1 |
| < 0.1 | CCOc1nc(-c2ccnc(NC(=O)c3cccc(F)c3)c2)sc1-c1nnc[nH]1 |
| < 0.1 | Cc1nn2ccc(OCCO)cc2c1-c1nc(-c2ccccc2)c(-c2nnc[nH]2)s1 |
| 0.1 to 1 | N#Cc1c(-c2ccnc(NC(=O)C3CCC3)c2)sc(-c2nnc[nH]2)c1-c1ccc(Cl)cc1Cl |
| < 0.1 | Clc1ccc(-c2cc(-c3ccnc4[nH]ccc34)sc2-c2ncc[nH]2)c(Cl)c1 |
| < 0.1 | Cc1nn2ccsc2c1-c1nc(-c2ccccc2)c(-c2ccn[nH]2)s1 |
| 0.1 to 1 | CCOc1nc(-c2ccnc(NC(=O)C(C)C)c2)sc1-c1nnc[nH]1 |
| < 0.1 | Cc1nn2ccccc2c1-c1nc(-c2cc(C=O)ccc2Cl)c(-c2nnc[nH]2)s1 |
| 0.1 to 1 | COc1ccc(F)c(F)c1-c1nc(-c2c(C)nn3ccccc23)sc1-c1nc[nH]n1 |
| < 0.1 | CNc1cc(-c2sc(-c3ncc[nH]3)c(-c3ccc(Cl)cc3Cl)c2C#N)ccn1 |
| < 0.1 | CC(=O)Nc1cc(-c2nc(-c3cc4ccccc4s3)c(-c3ncc[nH]3)s2)ccn1 |
| < 0.1 | Cc1nn2ccccc2c1-c1nc(-c2cccs2)c(-c2nc[nH]n2)s1 |
| < 0.1 | Cc1nn2ccsc2c1-c1nc(-c2ccccc2)c(-c2nccs2)s1 |
| < 0.1 | CC(=O)Nc1cc(-c2nc(-c3cn(C)nc3C(F)(F)F)c(-c3ncc[nH]3)s2)ccn1 |
| < 0.1 | CC(C)C(=O)Nc1cc(-c2sc(-c3ncc[nH]3)c(-c3ccc(Cl)cc3Cl)c2C#N)ccn1 |
